How the values were obtained:
HDAC 2 = HDAC 2 (Homo sapiens, UniProt Q92769); conditions: reported by Ning et al.; cited from earlier work
[1] = oral administration; cited from earlier work
[2] = tested on: MC38 murine colon carcinoma cells; assay: Example 1: tumor growth delay, MC38 murine colon carcinoma in C57BL/6 mice; type: in vivo, mouse; conditions: for Median TTE: endpoint 1000 mm^3 or Day 47, n=10; for % TGD: vs vehicle
Experimental: In the present example, HBI-8000 was tested as monotherapy and in combination with anti-PD-1 at 5 mg/kg. The experiment included a vehicle-treated group, and a PD-1 inhibitor antibody monotherapy group, which served as the control groups for analysis of efficacy. Tumors were measured twice per week until the study was ended on Day 47. Each animal was euthanized when its tumor attained the endpoint tumor volume of 1000 mm^3 or on the final day of the study, whichever came first, and the time to endpoint (TTE) for each mouse was calculated. Treatment response was determined from an analysis of percent tumor growth delay (% TGD), defined as the percent increase in the median time to endpoint (TTE) for treated versus control mice; and by log rank significance of differences in survival among groups and regression responses.
Mice: Female C57BL/6 mice (Charles River Laboratories) were eight weeks old, with a body weight (BW) range of 15.4 to 22.0 grams on Day 1 of the study. The animals were fed ad libitum water (reverse osmosis, 1 ppm Cl), and NIH 31 Modified and Irradiated Lab Diet® consisting of 18.0% crude protein, 5.0% crude fat, and 5.0% crude fiber. The mice were housed on irradiated Enrich-o'Cobs™ Laboratory Animal Bedding in static microisolators on a 12-hour light cycle at 20-22° C. (68-72° F.) and 40-60% humidity.
Tumor Cells: MC38 murine colon carcinoma cells were maintained in Dulbecco's Modified Eagle Medium (DMEM) supplemented with 10% fetal bovine serum and 2 mM glutamine, 100 units/mL penicillin G sodium, […] streptomycin sulfate, and 25 μg/mL gentamicin. Cell cultures were maintained in tissue culture flasks in a humidified incubator at 37° C., in an atmosphere of 5% CO2 and 95% air.
Tumor Implantation: Cells were harvested during exponential growth, and resuspended in cold DMEM. Each mouse was inoculated subcutaneously in the right flank with 1×10^6 cells (0.1 mL of cell suspension). Tumors were calipered in two dimensions to monitor growth as their mean volume approached the desired 100-150 mm^3 range. Tumor burden was calculated using the formula:
[formula] where w=width and l=length, in mm, of the tumor. Tumor weight may be estimated with the assumption that 1 mg is equivalent to 1 mm^3 of tumor volume. Fourteen days after tumor implantation, which was designated as Day 1 of the study, animals with individual tumor volumes from 75 to 221 mm^3 were sorted into eleven groups (n=10/group) with group mean tumor volume of 130-133 mm^3. […]
Tumor Growth Delay: Tumors were measured using calipers twice per week, and each animal was euthanized when its tumor reached a volume of 1000 mm^3 or at the end of the study (D47), whichever came first. […] The time to endpoint (TTE) for analysis was calculated for each mouse by the following equation: […]

[3] = HBI-8000 20 mg/kg p.o. qd×21, alone or plus anti-PD-1 5 mg/kg i.p. biwk×3
[4] = HBI-8000 50 mg/kg p.o. qd×21, alone or plus anti-PD-1 5 mg/kg i.p. biwk×3

HDAC 2, sequence (Q92769 whole entry): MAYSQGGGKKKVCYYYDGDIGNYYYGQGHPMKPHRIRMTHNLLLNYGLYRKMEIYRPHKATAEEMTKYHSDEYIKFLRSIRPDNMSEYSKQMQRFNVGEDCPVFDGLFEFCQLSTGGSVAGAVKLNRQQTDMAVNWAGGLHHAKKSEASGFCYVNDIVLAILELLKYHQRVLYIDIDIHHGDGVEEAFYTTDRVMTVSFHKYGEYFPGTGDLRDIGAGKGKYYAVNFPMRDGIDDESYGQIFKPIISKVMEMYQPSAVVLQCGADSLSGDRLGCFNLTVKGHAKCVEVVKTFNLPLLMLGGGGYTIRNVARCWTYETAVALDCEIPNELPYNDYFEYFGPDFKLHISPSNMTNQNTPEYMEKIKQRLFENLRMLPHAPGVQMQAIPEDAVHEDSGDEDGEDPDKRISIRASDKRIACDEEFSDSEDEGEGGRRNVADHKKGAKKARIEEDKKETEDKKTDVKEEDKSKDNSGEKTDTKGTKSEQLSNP

Nc1cc(F)ccc1NC(=O)c1ccc(CNC(=O)/C=C/c2cccnc2)cc1 [HBI-8000, N-(2-amino-4-fluorophenyl)-4-[[[(2E)-1-oxo-3-(3-pyridinyl)-2-propen-1-yl]amino]methyl]benz amide]
activity at HDAC 2 compared with Entinostat (HDAC 2): more active than Entinostat | inhibition of HDAC 2 (HDAC 2): low nanomolar concentrations | t1/2 [1]: about 17 hours | Median TTE [2, 3]: 18.9 days | % TGD [2, 3]: −8% | Median TTE [2, 4]: 22.8 days | % TGD [2, 4]: 11%

— patent US12122833B2, “Combination therapies of HDAC inhibitors and PD-1 inhibitors” (HUYABIO International, LLC, priority 2016, dated 2024)
